Target: USP7 (Homo sapiens, UniProt Q93009)
Assay: USP7 inhibitory potency (IC50)
Assay type: biochemical
Experimental: Activity for compounds described herein is provided in Table 2, wherein potency levels are provided as follows: (Potency: USP7 IC50: A<0.01 μM; B=0.01-0.1 μM; C=>0.1 μM.

USP7, sequence (Q93009 whole entry): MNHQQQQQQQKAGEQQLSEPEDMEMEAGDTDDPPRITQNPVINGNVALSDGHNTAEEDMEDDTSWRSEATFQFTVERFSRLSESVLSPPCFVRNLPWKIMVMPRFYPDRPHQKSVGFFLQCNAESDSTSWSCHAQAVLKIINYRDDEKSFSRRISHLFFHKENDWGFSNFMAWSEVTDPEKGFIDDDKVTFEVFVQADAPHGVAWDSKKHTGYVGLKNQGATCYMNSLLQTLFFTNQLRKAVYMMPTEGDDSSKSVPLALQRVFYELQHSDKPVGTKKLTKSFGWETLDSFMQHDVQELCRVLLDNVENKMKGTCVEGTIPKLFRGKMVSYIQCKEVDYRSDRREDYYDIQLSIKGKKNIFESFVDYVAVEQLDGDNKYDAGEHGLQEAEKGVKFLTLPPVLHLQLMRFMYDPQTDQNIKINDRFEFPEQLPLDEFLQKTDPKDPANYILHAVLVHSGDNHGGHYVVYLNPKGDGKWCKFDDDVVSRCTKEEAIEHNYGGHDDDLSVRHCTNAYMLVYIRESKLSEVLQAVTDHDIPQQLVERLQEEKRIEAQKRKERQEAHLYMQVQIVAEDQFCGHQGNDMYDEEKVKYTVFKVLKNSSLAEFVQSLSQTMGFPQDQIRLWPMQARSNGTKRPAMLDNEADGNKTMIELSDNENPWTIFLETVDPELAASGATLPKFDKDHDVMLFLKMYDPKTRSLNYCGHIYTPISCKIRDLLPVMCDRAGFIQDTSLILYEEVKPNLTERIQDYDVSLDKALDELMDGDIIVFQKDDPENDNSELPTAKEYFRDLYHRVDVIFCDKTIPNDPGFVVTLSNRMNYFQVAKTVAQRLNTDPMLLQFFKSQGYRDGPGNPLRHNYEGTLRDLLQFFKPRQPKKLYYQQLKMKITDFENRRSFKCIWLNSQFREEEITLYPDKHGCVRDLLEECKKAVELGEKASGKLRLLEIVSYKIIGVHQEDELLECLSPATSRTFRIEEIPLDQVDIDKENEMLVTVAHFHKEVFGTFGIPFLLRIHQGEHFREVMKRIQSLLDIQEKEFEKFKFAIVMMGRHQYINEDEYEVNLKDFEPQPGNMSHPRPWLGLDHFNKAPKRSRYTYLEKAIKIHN

Q: For `Cc1cc(Cl)cc(-c2ccnc3cc(Cn4c(=O)ccn(CC(F)(F)F)c4=O)sc23)c1CN1CCNCC1` [Example 2, 3-((7-(5-chloro-3-methyl-2-(piperazin-1-ylmethyl)phenyl)thieno[3,2-b]pyridin-2-yl)methyl)-1-(2,2,2-trifluoroethyl)pyrimidine-2,4(1H,3H)-dione], which IC50 is on record?
A: The IC50 was less than 10 nM.

Q: Which IC50 does the source give for `Cc1cc(Cl)cc(-c2ncnc3cc(CN4CC(C(F)F)CC4=O)sc23)c1C[C@@H]1CNCC(C)(C)O1` (stereo partly drawn) [Example 228, 1-((4-(5-chloro-2-(((R)-6,6-dimethylmorpholin-2-yl)methyl)-3-methylphenyl)thieno[3,2-d]pyrimidin-6-yl)methyl)-4-(difluoromethyl)pyrrolidin-2-one] here?
A: Its IC50 is 10 to 100 nM.

Q: With `Cc1cc(Cl)cc(-c2ncnc3cc(CN4C(=O)C5CC5C4=O)sc23)c1CC1OCCNC1(C)C` (stereo not drawn) [Example 159, 3-((4-(5-chloro-2-((3,3-dimethylmorpholin-2-yl)methyl)-3-methylphenyl)thieno[3,2-d]pyrimidin-6-yl)methyl)-3-azabicyclo[3.1.0]hexane-2,4-dione] as the compound, how does the IC50 read?
A: The IC50 was 10 to 100 nM.

Q: For `Cc1cc(Cl)cc(-c2ncnc3cc(CN4C(=O)CCC4C)sc23)c1CN1[C@@H](C)CNC[C@@H]1C` (stereo partly drawn) [Example 91, 1-((4-(5-chloro-2-(((2S,6S)-2,6-dimethylpiperazin-1-yl)methyl)-3-methylphenyl)thieno[3,2-d]pyrimidin-6-yl)methyl)-5-methylpyrrolidin-2-one], which IC50 is on record?
A: Its IC50 is greater than 100 nM.

Q: `Cc1cc(Cl)cc(-c2ncnc3cc(CN4C(=O)COC4=O)sc23)c1CN1C[C@@H](C)NC[C@@H]1C` [Example 76, 3-((4-(5-chloro-2-(((2S,5R)-2,5-dimethylpiperazin-1-yl)methyl)-3-methylphenyl)thieno[3,2-d]pyrimidin-6-yl)methyl)oxazolidine-2,4-dione] was tested. Which IC50 did it give?
A: The IC50 was 10 to 100 nM.

Q: Which IC50 does the source give for `Cc1cc(Cl)cc(-c2ncnc3cc(CN4C(=O)C5CC5C4=O)sc23)c1C[C@H]1CNCC(C)(C)O1` (stereo partly drawn) [Example 213, 3-((4-(5-chloro-2-(((S)-6,6-dimethylmorpholin-2-yl)methyl)-3-methylphenyl)thieno[3,2-d]pyrimidin-6-yl)methyl)-3-azabicyclo[3.1.0]hexane-2,4-dione] here?
A: The IC50 was 10 to 100 nM.

Q: With `Cc1cc(Cl)cc(-c2ncnc3cc(CN4C(=O)C5CC5C4=O)sc23)c1C[C@H]1CN(C(=O)C(F)(F)F)CCO1` (stereo partly drawn) [Example 198, 3-((4-(5-chloro-3-methyl-2-(((S)-4-(2,2,2-trifluoroacetyl)morpholin-2-yl)methyl)phenyl)thieno[3,2-d]pyrimidin-6-yl)methyl)-3-azabicyclo[3.1.0]hexane-2,4-dione] as the compound, how does the IC50 read?
A: Its IC50 is greater than 100 nM.

Q: With `Cc1cc(Cl)cc(-c2ccnc3cc(CN4C(=O)C5CC5C4=O)sc23)c1CN1C[C@H](C)NC[C@@H]1C` (stereo partly drawn) [Example 33, 3-((7-(5-chloro-2-(((2S,5 S)-2,5-dimethylpiperazin-1-yl)methyl)-3-methylphenyl)thieno[3,2-b]pyridin-2-yl)methyl)-3-azabicyclo[3.1.0]hexane-2,4-dione] as the compound, how does the IC50 read?
A: Its IC50 is less than 10 nM.

Q: For `Cc1cc(Cl)cc(-c2ncnc3cc(CN4C(=O)c5ccccc5C4=O)sc23)c1CC1CNCCO1` (stereo not drawn) [Example 179, 2-((4-(5-chloro-3-methyl-2-(morpholin-2-ylmethyl)phenyl)thieno[3,2-d]pyrimidin-6-yl)methyl)isoindoline-1,3-dione], which IC50 is on record?
A: Its IC50 is less than 10 nM.

Q: Which IC50 does the source give for `Cc1cc(Cl)cc(-c2ccnc3cc(CN4C(=O)C5CC5C4=O)sc23)c1CC1CNCCS1` (stereo not drawn) [Example 113, 3-((7-(5-chloro-3-methyl-2-(thiomorpholin-2-ylmethyl)phenyl)thieno[3,2-b]pyridin-2-yl)methyl)-3-azabicyclo[3.1.0]hexane-2,4-dione] here?
A: Its IC50 is less than 10 nM.

Q: `Cc1cc(Cl)cc(-c2ncnc3cc(CN4C(=O)CCN(C)C4=O)sc23)c1CC1CNCCO1` (stereo not drawn) [Example 164, 3-((4-(5-chloro-3-methyl-2-(morpholin-2-ylmethyl)phenyl)thieno[3,2-d]pyrimidin-6-yl)methyl)-1-methyldihydropyrimidine-2,4(1H,3H)-dione] was tested. Which IC50 did it give?
A: The IC50 was less than 10 nM.

Q: `Cc1cc(Cl)cc(-c2ncnc3cc(Cn4c(=O)ccn(C)c4=O)sc23)c1CN1C[C@@H](C)NC[C@@H]1C` [Example 66, 3-((4-(5-chloro-2-(((2S,5R)-2,5-dimethylpiperazin-1-yl)methyl)-3-methylphenyl)thieno[3,2-d]pyrimidin-6-yl)methyl)-1-methylpyrimidine-2,4(1H,3H)-dione] was tested. Which IC50 did it give?
A: The IC50 was less than 10 nM.

Q: `Cc1cc(Cl)cc(-c2ccnc3cc(CN4C(=O)CCC4=O)sc23)c1CN1[C@@H](C)CN(C(C)C)C[C@@H]1C` [Example 30, 1-((7-(5-chloro-2-(((2S,6S)-4-isopropyl-2,6-dimethylpiperazin-1-yl)methyl)-3-methylphenyl)thieno[3,2-b]pyridin-2-yl)methyl)pyrrolidine-2,5-dione] was tested. Which IC50 did it give?
A: Its IC50 is less than 10 nM.

Q: “3-((7-(3,5-dichloro-2-(((2S,6S)-2,6-dimethylpiperazin-1-yl)methyl)phenyl)thieno[3,2-b]pyridin-2-yl)methyl)-1-methyldihydropyrimidine-2,4(1H,3H)-dione [Example 93]” was tested. Which IC50 did it give?
A: The IC50 was less than 10 nM.

Q: How did the IC50 turn out when `Cc1cc(Cl)cc(-c2ncnc3cc(CN4C(=O)C5CC5C4=O)sc23)c1C[C@H]1OCCN[C@@H]1C` (stereo partly drawn) [Example 160, 3-((4-(5-chloro-3-methyl-2-(((2R,3R)-3-methylmorpholin-2-yl)methyl)phenyl)thieno[3,2-d]pyrimidin-6-yl)methyl)-3-azabicyclo[3.1.0]hexane-2,4-dione] was run?
A: The IC50 was less than 10 nM.

Q: For `Cc1cc(Cl)cc(-c2ncnc3cc(Cn4c(=O)ccn(CC(F)(F)F)c4=O)sc23)c1CC1CNCCO1` (stereo not drawn) [Example 167, 3-((4-(5-chloro-3-methyl-2-(morpholin-2-ylmethyl)phenyl)thieno[3,2-d]pyrimidin-6-yl)methyl)-1-(2,2,2-trifluoroethyl)pyrimidine-2,4(1H,3H)-dione], which IC50 is on record?
A: The IC50 was less than 10 nM.

Q: How did the IC50 turn out when `CN1CC(=O)N(Cc2cc3ncnc(-c4cc(Cl)cc(Cl)c4CC4CNCC(C)(C)O4)c3s2)C1=O` (stereo not drawn) [Example 253, 3-((4-(3,5-dichloro-2-((6,6-dimethylmorpholin-2-yl)methyl)phenyl)thieno[3,2-d]pyrimidin-6-yl)methyl)-1-methylimidazolidine-2,4-dione] was run?
A: Its IC50 is less than 10 nM.

Q: Which IC50 does the source give for `Cc1cc(Cl)cc(-c2ncnc3cc(CN4C(=O)OC[C@@H]4CO)sc23)c1C[C@@H]1CNCC(C)(C)O1` [Example 268, (S)-3-((4-(5-chloro-2-(((R)-6,6-dimethylmorpholin-2-yl)methyl)-3-methylphenyl)thieno[3,2-d]pyrimidin-6-yl)methyl)-4-(hydroxymethyl)oxazolidin-2-one] here?
A: Its IC50 is less than 10 nM.

Q: Which IC50 does the source give for `Cc1cc(C(F)(F)F)cc(-c2ncnc3cc(CN4C(=O)C5CC5C4=O)sc23)c1CN1CCNC[C@@H]1C` (stereo partly drawn) [Example 58, 3-((4-(3-methyl-2-(((S)-2-methylpiperazin-1-yl)methyl)-5-(trifluoromethyl)phenyl)thieno[3,2-d]pyrimidin-6-yl)methyl)-3-azabicyclo[3.1.0]hexane-2,4-dione] here?
A: The IC50 was 10 to 100 nM.

Q: Which IC50 does the source give for `Cc1cc(Cl)cc(-c2ncnc3cc(CN4C(=O)CN(CC(=O)O)C4=O)sc23)c1C[C@@H]1CNCCO1` [Example 261, (R)-2-(3-((4-(5-chloro-3-methyl-2-(morpholin-2-ylmethyl)phenyl)thieno[3,2-d]pyrimidin-6-yl)methyl)-2,4-dioxoimidazolidin-1-yl)acetic acid] here?
A: Its IC50 is 10 to 100 nM.

Q: `Cc1cc(Cl)cc(-c2ncnc3cc(CN4CCCC4=O)sc23)c1CC1CNCCO1` (stereo not drawn) [Example 174, 1-((4-(5-chloro-3-methyl-2-(morpholin-2-ylmethyl)phenyl)thieno[3,2-d]pyrimidin-6-yl)methyl)pyrrolidin-2-one] was tested. Which IC50 did it give?
A: Its IC50 is greater than 100 nM.
